# Test results published in patent EP0516157A1, “Preparation of 6-0-alkylelsamicin A derivatives” (priority 1991, dated 1992).
# Legend:
# [1] = test system: lymphocytic leukemia P388; experiment: In vivo antitumor activity against P388 leukemia in mice; settings: for T/C % of MST: P388, female CDF1 mice, Q1Dx3 ip
# Procedure: (§1) In vivo antitumor activity of the above fifteen derivatives was tested in the lymphocytic leukemia P388 and melanoma B16 systems. Female CDF₁ (for P388) and male BDF₁ (for B16) mice were inoculated by ip injection at 10⁶ P388 cells and 0.5 ml of a 10% B16 brei per mouse, respectively (day 0). […] The percent increase of median survival time (MST) of treated animals over that of untreated control animals was determined and reported as T/C %. Compounds showing T/C % values of 125 or greater are considered to have significant antitumor activity.
# melanoma B16 = experiment: In vivo antitumor activity against B16 melanoma in mice; settings: B16, male BDF1 mice, Q4Dx3 ip
# Procedure: as §1
# [2] = test system: murine melanoma B16-F10 cells
# Procedure: (§2) For in vitro cytotoxicity experiment, murine melanoma B16-F10 cells were grown and maintained in Eagle's minimum essential medium (Nissui), which contains kanamycin (60 µg/ml), supplemented with heat-inactivated fetal calf serum (10%) and nonessential amino acids (0.6%) at 37°C under a humidified atmosphere in a 5% CO₂ incubator. Exponentially growing B16-F10 cells were harvested, counted and suspended in the culture medium at the concentration of 2.0x10⁴ cells/ml. The cell suspension (180 µl) was planted into wells of a 96-well microtiter plate and incubated for 24 hours. Test compounds (20 µl) were added to the wells and the plates were further incubated for 72 hours. The cytotoxic activity was colorimetrically determined at 540 nm after staining viable cells with neutral red solution.
# [3] = test system: murine melanoma B16-F10 cells; experiment: In vitro cytotoxicity, neutral red staining after 72 hours; settings: 72 hours incubation
# Procedure: as §2
smiles,measurement,setting,value
"CCOc1c2cccc(OC3OC(C)C4OC(C)(C)OC4(C)C3OC3OC(C)C(O)C(OC)C3N)c2c2oc(=O)c3c(C)ccc4oc(=O)c1c2c43 (stereo not drawn) [Compound 8b, 6-O-Ethyl-3'4'-O-isopropylideneelsamicin A]",T/C % of MST,[1]; 0.1 mg/kg/day,110%
same,T/C % of MST,[1]; 0.3 mg/kg/day,125%
same,T/C % of MST,[1]; 1 mg/kg/day,125%
same,T/C % of MST,[1]; 3 mg/kg/day,140%
same,T/C % of MST,[1]; 10 mg/kg/day,190%
same,T/C % of MST,[1]; 20 mg/kg/day,200%
same,anti-P388 activity compared with elsamicin A,"[1]; P388 system, in words",as active as elsamicin A
same,toxicity compared with elsamicin A,"[1]; P388 system, in words",seemed to be less toxic
same,T/C % of MST,melanoma B16; 0.1 mg/kg/day,97%
same,T/C % of MST,melanoma B16; 0.3 mg/kg/day,106%
same,T/C % of MST,melanoma B16; 1 mg/kg/day,119%
same,T/C % of MST,melanoma B16; 3 mg/kg/day,153%
same,T/C % of MST,melanoma B16; 10 mg/kg/day,216%
same,cytotoxicity compared with the parent compound,[2],approximately equipotent cytotoxicity to the parent compound
same,Cytotoxicity IC50,[3],0.06 µg/mL
